assay: Human HepG2 cell viability assay in 384 well format; format: toxicity, cell-based; parameters: dose 125 nL, time 70.5 hour; cytotoxicity at 70.5 h: concentration not given beside the values; settings: HepG2 cells, read-out: Inhibition

Point of comparison: `O=C(c1ccc(Cl)cc1-n1cnnn1)N1CCC2(CC1)OCCO2`, cytotoxicity at 70.5 h -0.151%. Against it:
- COC(=O)C(CCSC)NC(=O)Cc1c(C)nn(-c2ccccc2)c1C (stereo not given) — higher, 1.93%
- Cc1sc(CN)nc1-c1ccc(Cl)cc1Cl — higher, 5.42%
- CC(=O)Nc1nc(-c2ccc(F)cc2)c[nH]1 — higher, 36.5%
- CC(=O)Nc1ncc(-c2ccc(C)cc2)[nH]1 — higher, 4.65%
- Oc1nnc(-c2cccs2)c2sc(N3CCCC3)nc12 — lower, -6.61%
- O=c1[nH]c2nc(N3CCCCCC3)ncc2c(=O)n1-c1cccc(F)c1 — higher, -0.0138%
- NC(=O)C1CCN(c2nc3nccc(-c4ccncc4)c3c(=O)[nH]2)CC1 — lower, -1.26%
- COc1cc(C2SCC(=O)Nc3n[nH]cc32)cc(OC)c1O (stereo not given) — lower, -19.7%
- CC(C)CCNC(=O)c1c(-n2cnnn2)sc2c1CCCC2 — lower, -0.216%
- O=C(Nc1cccnc1)c1nn(C2CCS(=O)(=O)C2)c2c1CCCC2 (stereo not given) — lower, -23.7%
- CNc1nc2c(s1)C(c1cc(Cl)ccc1F)CC(=O)N2 (stereo not given) — higher, 57.6%
- O=C(Nc1ccccc1F)c1nn(C2CCS(=O)(=O)C2)c2c1CCCC2 (stereo not given) — lower, -7.2%
- COc1cc(C2SCC(=O)Nc3[nH]ncc32)cc(OC)c1OC (stereo not given) — lower, -5.35%
- O=C1CC(c2ccccc2C(F)(F)F)c2sc(N3CCOCC3)nc2N1 (stereo not given) — lower, -13.5%
- COc1ccc(C2CC(=O)Nc3nc(N4CCOCC4)sc32)c(OC)c1 (stereo not given) — lower, -21.3%
- CNc1nc2c(s1)C(c1ccccc1Cl)CC(=O)N2 (stereo not given) — lower, -21.9%
- NC(=O)c1ccc2c(c1)nc1n2CCN(Cc2cccnc2)C1 — lower, -1.68%
- CC(C)CNC(=O)c1ccc2c(c1)nc1n2CCN(Cc2ccco2)C1 — lower, -0.527%
- CCOC(=O)Cc1cs/c(=N/C(=O)COc2cnc(C)cc2O)[nH]1 — higher, 5.42%
- Cc1cc(O)c(OCC(=O)Nc2nccs2)cn1 — lower, -21.7%
- COCCNC(=O)c1c(-n2cnnn2)sc2c1CCCC2 — lower, -4.74%
- Oc1nc(N2CCOCC2)nc2nccc(-c3ccccn3)c12 — lower, -4.58%
- CNc1nc2c(s1)C(c1ccc(F)cc1Cl)CC(=O)N2 (stereo not given) — higher, 2.52%
- CCc1c(C(=O)O)nnn1-c1cccc(C)c1C — lower, -7.95%
- Cc1ccc(-n2nnc(C(=O)O)c2C)c(C)c1 — higher, 0.943%
- Cc1cc(=O)n(CC(=O)NCC2CCCO2)c(-c2ccc(F)cc2)n1 (stereo not given) — higher, 13%
- Cc1cc(C)n(Cc2cccc(C(=O)NCCN3CCOCC3)c2)n1 — lower, -6.51%
- Cc1nn(C)c2c(NCc3cccnc3)nc(C3CC3)nc12 — lower, -3.52%
- Cc1nc(C)c(C(=O)N2CCc3nnc(C4CCCCN4C)n3CC2)o1 (stereo not given) — higher, 0.605%
- CCn1nc(C)c(CN2CCC(c3ccn[nH]3)C2)c1C (stereo not given) — higher, 4.91%
- O=C1CCOC[C@]2(CN(Cc3ccccc3)C[C@H]2c2cccc(F)c2)N1 — lower, -2.96%
- CC(CN(C)C)Nc1nc(O)cc(Cc2ccccc2F)n1 (stereo not given) — higher, 4.28%
- CC(C)CC(=O)N1CCC(Nc2nc(O)cc(-c3ccsc3)n2)CC1 — higher, 11.2%
- CC1(C(=O)NCCCOc2ccccc2F)CC(=O)N2C=CC=CC2=N1 (stereo not given) — higher, 0.00385%
- Cc1cc(C)nc(N2CCC(c3cccc(CCC(=O)O)n3)CC2)n1 — lower, -9.41%
- O=C(Cc1ccccc1)NCc1ccc(-c2ccccc2C(=O)O)cn1 — higher, 1.3%
- CCCNCc1ccc(OCc2ccc3c(c2)OCCO3)cc1 — higher, 33.3%
- CN(C)Cc1cc(C2CCN(C(=O)C3CCCNC3)CC2)nn1C (stereo not given) — lower, -5.29%
- CCn1cc(NC(=O)CN2CCC(Oc3ccc(F)cc3)CC2)c(C)n1 — higher, 5.01%
- CNC(=O)[C@@H]1CN(C(=O)CCOC)C[C@H]1c1ccnc(N2CCCC2)n1 — lower, -4.83%
- CNC(=O)[C@@H]1CN(C(=O)C(C)C)C[C@H]1c1ccnc(N2CCCC2)n1 — lower, -3.61%
- CNC(=O)[C@@H]1CN(C(=O)C2CCC2)C[C@H]1c1ccnc(N2CCCC2)n1 — lower, -0.284%
- O=C(NC1CCCC1)c1ccnc(C2CCNCC2)c1 — lower, -1.39%
- Cc1cc(NCCO)nc(N2CCC(Cc3ccccc3)CC2)c1C#N — higher, 0.669%

From ChEMBL document CHEMBL3507680, “University of Dundee, Gates Library screen for HepG2 cell viability”
